Results: US6087358A (priority 1997, dated 2000)
≈ marks a conversion by molar mass, not a printed value. Like-named read-outs stand apart in the source and are kept apart here.

How the values were obtained:
[1] = test system: Helicobacter pylori; assay: In vitro inhibition of Helicobacter pylori (broth microdilution MIC); conditions: Helicobacter pylori
[2] = test system: Cryptosporidium parvum; assay: Inhibition of Cryptosporidium parvum (ELISA, infected HCT-8 monolayers); format: cell-based
Procedure: Susceptibility testing against Cryptosporidium was performed according to published procedures (K. Woods, M. Nesterenko, S. Upton, "Development of a microtiter ELISA to quantify development of Cryptosporidium parvum in vitro," FEMS Microbiology Letters, 128:89-94 (1995).
Compounds were solubilized to a concentration of 100 mg/mL in 100% DMSO. DMSO solutions of test compounds were added to the test wells of a microplate at a volume that produced a final concentration of DMSO of 0.2%. Monolayers of human ileocecal adenocarcinoma cells (HCT-8) were prepared by growth in RPMI 1640 medium in 96-Well tissue culture trays for 24 h. Oocysts of C. parvum were allowed to excyst in 10% bleach for 10 min prior to use. Monolayers were then infected with 2-3×10^4 oocysts/well and incubated in the presence or absence of compound for 48 h at 35° C. in 5% CO2 and 95% humidity. Background consisted of wells containing killed oocysts (freeze thaw cycle following 30 sec exposure to liquid nitrogen). Growth control wells were infected with 2-3×10^4 oocysts/well in the absence of test compounds. At the end of incubation, wells were washed and fixed by adding 100 uL of 4% formalin in phosphate buffered saline (pH 7.3) per well for 2 h. After blocking with 1% bovine serum albumin, and 0.002% Tween 20, 50 uL of rat anti-Cryptosporidium membrane protein antiserum was added. After 30 min, wells were washed in PBS and 50 uL of secondary antibody (goat anti-rat antibody conjugated with horseradish peroxidase) was added. After 20-30 min, wells were washed again in PBS and 50 uL of 3,3',5,5'-tetramethylbenzidine solution was added. Plates were allowed to develop for 10-15 min and the optical density was read at 630 nm. Percent inhibition was calculated by comparing the optical density of the drug treated group to that of the untreated control.

[3] = test system: Helicobacter felis; assay: In vivo activity against Helicobacter felis in mice (urease test of stomach biopsy); parameters: species or system in female CD-1 mice; conditions: 50 mg/kg three times daily oral gavage, CM-2, four days; vehicle and untreated 100
Procedure: Female CD-1 mice weighing 30 grams were infected by oral gavage with 10^8 -10^9 colony forming units of H. felis. This infection process was repeated two, and four days, thereafter. Colonization of the stomach was allowed to occur over a seven day period. Animals were segregated into groups of five, and were treated three times daily by oral gavage with 50 mg/kg of test drugs prepared in the CM-2 formulation vehicle (Example 52). Treatment continued for four days. One group of animals received an equal volume of formulation vehicle alone, to ensure that the vehicle had no effect on the Helicobacter infection. A separate untreated control group was also included.
All animals were then sacrificed, the stomachs were removed, opened, and the contents washed out. A five millimeter diameter biopsy was removed, and transferred to a urease test solution containing a pH-sensitive dye, which was then incubated at 37° C. incubator for 24 hours. A blue or purple coloration in this test solution signifies a positive reaction, indicating the continued presence of viable Helicobacter bacteria; a negative result is indicated by a yellow coloration. Viable Helicobacter bacteria produce a urease enzyme which converts urea, of which there is an abundant supply in the stomach (from saliva and gastric juices), into bicarbonate and ammonia, which are strong bases. This mechanism is considered to provide conditions more amenable to the survival of Helicobacter in the otherwise acidic conditions prevalent in the stomach.

[4] = test system: M. tuberculosis H37 Rv in human THP-1 macrophages; assay: In vitro activity against M. tuberculosis in human macrophages (luciferase bioluminescence); format: cell-based, Mycobacterium tuberculosis, in human THP-1 cells
[5] = test system: Mycobacterium tuberculosis (rMTB); assay: In vivo antimycobacterial activity against M. tuberculosis (rMTB) in lungs of mice; parameters: species or system Mycobacterium tuberculosis Erdman, in female BALB/c mice; conditions: 25 mg/kg daily oral gavage, CM-2, 10 days, control 117,258 (PA-824, 636, 1297) or 22,751 (others)
[6] = test system: Mycobacterium bovis (rBCG-lux); assay: microbe, parasite or virus in culture; format: cell-based, Mycobacterium bovis bacille Calmette Guerin; conditions: Mycobacterium tuberculosis variant bovis, 72 h; read-out: % of control, measured in RLUs
[7] = test system: Helicobacter pylori Strain 4187E; assay: In vivo activity against Helicobacter pylori strain 4187E in mice; parameters: species or system in outbred female white mice; conditions: oral gavage, four days
Excerpt: Outbred female white mice (20 grams) were infected by oral gavage with 10^7 -10^8 colony forming units of H. pylori strain 4187E (originally isolated from a patient with a duodenal ulcer). […] Treatment continued for four days. Clarithromycin, administered at the same concentration and for the same duration, was included as a positive control. One group of animals also received an equal volume of formulation vehicle alone, to provide a negative control.
Five days after cessation of treatment, all animals were sacrificed, the stomachs were removed, opened, and the contents washed out. The entire mucosal surface was then spread evenly over the surface of an agar plate containing antibiotics appropriate for the prevention of growth of microorganisms other than Helicobacter spp. After seven days incubation under microaeropilic conditions at 37° C., culture plates were evaluated for bacterial growth.

## O=[N+]([O-])c1cn2c(n1)OC[C@@H](OCc1ccc(OC(F)(F)F)cc1)C2 [PA-824, 3S 4-(Trifluromethoxy)benzyloxy-6-nitro-2H-3,4-dihydro-[2-1b]imidazopyran]
[1]; 72 h, read-out: MIC against Helicobacter pylori, strain 17 (Table 5A)
  MIC: > 25 µg/mL
[1]; 72 h, read-out: MIC against Helicobacter pylori, strain 19 (Table 5A)
  MIC: 0.4 µg/mL (≈ 1.11 µM)
[1]; 72 h, read-out: MIC against Helicobacter pylori, strain 20 (Table 5A)
  MIC: 0.2 µg/mL (≈ 0.557 µM)
[1]; 72 h, read-out: MIC against Helicobacter pylori, strain 40 (Table 5A)
  MIC: 0.4 µg/mL (≈ 1.11 µM)
[1]; 72 h, read-out: MIC against Helicobacter pylori, strain 43 (Table 5A)
  MIC: 0.8 µg/mL (≈ 2.23 µM)
[1]; 72 h, read-out: MIC against Helicobacter pylori, strain 76 (Table 5A)
  MIC: 12.5 µg/mL (≈ 34.8 µM)
[1]; ATCC43504, 72 h, read-out: MIC against Helicobacter pylori, strain ATCC 43504 (Table 5A)
  MIC: > 25 µg/mL
[2]; C. parvum growth
  dose-related response: A clear dose-related response
[2]; Cryptosporidium parvum, HCT-8
  IC50: 25 µg/mL (≈ 69.6 µM)
[2]; Cryptosporidium parvum, HCT-8, 5 μg/mL, 48 h, read-out: Percent Inhibition of C. parvum
  inhibition at 5 µg/mL: 3.1%
[2]; Cryptosporidium parvum, HCT-8, 10 μg/mL, 48 h, read-out: Percent Inhibition of C. parvum
  inhibition at 10 µg/mL: 17%
[2]; Cryptosporidium parvum, HCT-8, 20 μg/mL, 48 h, read-out: Percent Inhibition of C. parvum
  inhibition at 20 µg/mL: 40%
[2]; Cryptosporidium parvum, HCT-8, 25 μg/mL, 48 h, read-out: Percent Inhibition of C. parvum
  inhibition at 25 µg/mL: 52%
[2]; Cryptosporidium parvum, HCT-8, 50 μg/mL, 48 h, read-out: Percent Inhibition of C. parvum
  inhibition at 50 µg/mL: 93%
[2]; Cryptosporidium parvum, HCT-8, 100 μg/mL, 48 h, read-out: Percent Inhibition of C. parvum
  inhibition at 100 µg/mL: 87%
[3]
  % Survival: 40%
[4]; 0.06 μg/mL, day 1
  RLU values: 25856 RLU
[4]; 0.06 μg/mL, day 2
  RLU values: 93959 RLU
[4]; 0.06 μg/mL, day 3
  RLU values: 109301 RLU
[4]; 0.06 μg/mL, day 4
  RLU values: 118318 RLU
[4]; 0.06 μg/mL, day 7
  RLU values: 138792 RLU
[4]; 0.13 μg/mL, day 1
  RLU values: 16904 RLU
[4]; 0.13 μg/mL, day 2
  RLU values: 40573 RLU
[4]; 0.13 μg/mL, day 3
  RLU values: 29162 RLU
[4]; 0.13 μg/mL, day 4
  RLU values: 27802 RLU
[4]; 0.13 μg/mL, day 7
  RLU values: 28699 RLU
[4]; 0.25 μg/mL, day 1
  RLU values: 15814 RLU
[4]; 0.25 μg/mL, day 2
  RLU values: 18064 RLU
[4]; 0.25 μg/mL, day 3
  RLU values: 13413 RLU
[4]; 0.25 μg/mL, day 4
  RLU values: 8684 RLU
[4]; 0.25 μg/mL, day 7
  RLU values: 6437 RLU
[4]; 0.5 μg/mL, day 1
  RLU values: 10021 RLU
[4]; 0.5 μg/mL, day 2
  RLU values: 9610 RLU
[4]; 0.5 μg/mL, day 3
  RLU values: 6579 RLU
[4]; 0.5 μg/mL, day 4
  RLU values: 5068 RLU
[4]; 0.5 μg/mL, day 7
  RLU values: 2957 RLU
[4]; 1.0 μg/mL, day 1
  RLU values: 8197 RLU
[4]; 1.0 μg/mL, day 2
  RLU values: 5588 RLU
[4]; 1.0 μg/mL, day 3
  RLU values: 3950 RLU
[4]; 1.0 μg/mL, day 4
  RLU values: 2686 RLU
[4]; 1.0 μg/mL, day 7
  RLU values: 1986 RLU
[4]; 2.0 μg/mL, day 1
  RLU values: 4571 RLU
[4]; 2.0 μg/mL, day 2
  RLU values: 3833 RLU
[4]; 2.0 μg/mL, day 3
  RLU values: 2567 RLU
[4]; 2.0 μg/mL, day 4
  RLU values: 1507 RLU
[4]; 2.0 μg/mL, day 7
  RLU values: 1217 RLU
[4]; Mycobacterium tuberculosis, H37RV, human THP-1 macrophages, read-out: concentrations sufficient to prevent intracellular growth of M. tuberculosis
  minimal effective concentration: ≥ 0.25 µg/mL
[4]; concentrations up to 2.0 μg/ml
  dose-related response: A clear dose-related response
[5]
  Average RLUs, M. tuberculosis (rMTB) in lungs: 2,496 RLUs
[6]
  activity at 0.15 µg/mL: 29.4%
  activity at 0.31 µg/mL: 12.3%
  activity at 0.62 µg/mL: 0.6%
  activity at 1.25 µg/mL: 0.3%
  activity at 2.5 µg/mL: 0.2%
  activity at 5 µg/mL: 0.1%
[7]; once daily 25 mg/kg
  % Eradication: 0%
[7]; twice daily 5 mg/kg
  % Eradication: 10%
[7]; twice daily 50 mg/kg
  % Eradication: 100%
